Measurements taken from PubChem BioAssay (NCI).
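Exposure lasted 48 hours, with cells grown in 96-well plates and compounds tested at five concentrations. At the TGI there is no net growth.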

Legend:
Assay in all cases: NCI-60 cell line screen, 48 h
A498 renal = system: A498 renal
CCRF-CEM leukemia = system: CCRF-CEM leukemia
COLO 205 colon = system: COLO 205 colon
HCT-116 colon = system: HCT-116 colon
IGROV1 ovarian = system: IGROV1 ovarian
K-562 leukemia = system: K-562 leukemia
KM12 colon = system: KM12 colon
MALME-3M melanoma = system: MALME-3M melanoma
MDA-N = system: MDA-N
MOLT-4 leukemia = system: MOLT-4 leukemia
NCI-H23 lung = system: NCI-H23 lung
OVCAR-4 ovarian = system: OVCAR-4 ovarian
OVCAR-8 ovarian = system: OVCAR-8 ovarian
SW-620 colon = system: SW-620 colon
TK-10 renal = system: TK-10 renal
UACC-62 melanoma = system: UACC-62 melanoma
SK-MEL-2 melanoma = system: SK-MEL-2 melanoma
U251 CNS = system: U251 CNS

Row | Compound | TGI (A498 renal) | TGI (CCRF-CEM leukemia) | TGI (COLO 205 colon) | TGI (HCT-116 colon) | TGI (IGROV1 ovarian) | TGI (K-562 leukemia) | TGI (KM12 colon) | TGI (MALME-3M melanoma) | TGI (MDA-N) | TGI (MOLT-4 leukemia) | TGI (NCI-H23 lung) | TGI (OVCAR-4 ovarian) | TGI (OVCAR-8 ovarian) | TGI (SW-620 colon) | TGI (TK-10 renal) | TGI (UACC-62 melanoma) | TGI (SK-MEL-2 melanoma) | TGI (U251 CNS)
1 | O=C(/C=C/c1cccc([N+](=O)[O-])c1)N1CCN(CCOC(c2ccccc2)c2ccccc2)CC1 | > 100 µM | 65.4 µM | 91.9 µM | 51.8 µM | > 100 µM | 50.7 µM | 87.8 µM | > 100 µM | > 100 µM | 27.4 µM | > 100 µM | > 100 µM | > 100 µM | > 100 µM | 47.7 µM | > 100 µM | – | –
2 | Cc1c(N=Nc2ccccc2)c(-c2ccccc2)n(C2OC(CO)C(O)C(O)C2O)c(=S)c1C#N (stereo not given) | 32.5 µM | – | 31.3 µM | – | 22.5 µM | > 100 µM | 11.6 µM | 30.6 µM | 20.1 µM | 24.5 µM | 16.2 µM | 26.1 µM | > 100 µM | 24.2 µM | 26.9 µM | 13 µM | 21.8 µM | 17.7 µM
3 | Cc1ccc2c(c1)C(=O)C1(C2)Cc2c(C)cccc2C1=O (stereo not given) | > 100 µM | > 100 µM | > 100 µM | > 100 µM | > 100 µM | > 100 µM | > 100 µM | > 100 µM | > 100 µM | > 100 µM | > 100 µM | > 100 µM | > 100 µM | > 100 µM | > 100 µM | > 100 µM | – | > 100 µM
4 | Nc1cc(Cl)cc2cc(Cl)cnc12 | > 100 µM | > 100 µM | > 100 µM | > 100 µM | > 100 µM | > 100 µM | > 100 µM | > 100 µM | > 100 µM | > 100 µM | > 100 µM | > 100 µM | > 100 µM | > 100 µM | > 100 µM | > 100 µM | – | > 100 µM
5 | COC(=O)/C(C)=N/NC(=S)SC | > 100 µM | 11 µM | – | 98.5 µM | > 100 µM | > 100 µM | > 100 µM | – | > 100 µM | > 100 µM | > 100 µM | > 100 µM | > 100 µM | > 100 µM | > 100 µM | – | > 100 µM | > 100 µM
6 | CC12Nc3c(Cl)cc(Cl)cc3N1C(=O)c1ccccc12 (stereo not given) | 99.9 µM | > 100 µM | > 100 µM | > 100 µM | > 100 µM | – | > 100 µM | > 100 µM | > 100 µM | > 100 µM | > 100 µM | > 100 µM | > 100 µM | > 100 µM | > 100 µM | > 100 µM | > 100 µM | > 100 µM
7 | CN(C)CCn1c(=O)c2ccc(NCCNCCO)c3c(=O)c4ccccc4n(c1=O)c23 | 0.458 µM | – | 0.836 µM | 3.4 µM | 1.87 µM | 1.08 µM | 2.42 µM | 3.41 µM | 1.78 µM | – | 0.849 µM | 5.24 µM | 5.64 µM | > 30.7 µM | 6.95 µM | 0.88 µM | 1.85 µM | 3.07 µM
8 | C/C(Cl)=N/OC(=O)Nc1ccc(F)c([N+](=O)[O-])c1 | 39 µM | – | 5.38 µM | > 30.8 µM | 17.9 µM | > 23.9 µM | 33.8 µM | 8.88 µM | 35.1 µM | 3.9 µM | 48.5 µM | 40.7 µM | 31.7 µM | 25.6 µM | 13.2 µM | > 63.2 µM | 32.2 µM | 41.9 µM
9 | CN1CCC23c4c5ccc(Oc6nnnn6-c6ccccc6)c4OC2c2[nH]c4ccccc4c2CC3(O)C1C5 (stereo not given) | 6.3 µM | 4.19 µM | – | 3.45 µM | 23 µM | 3.86 µM | 7.68 µM | 3.11 µM | 3.26 µM | 5.33 µM | 33.7 µM | 7.53 µM | 9.6 µM | 6.14 µM | 3.35 µM | 3.52 µM | 3.28 µM | 3.65 µM
10 | O=[N+]([O-])/C(C(Cl)=C(Cl)Cl)=C1\Nc2ccc([N+](=O)[O-])cc2N1 | > 100 µM | 56.2 µM | > 100 µM | > 100 µM | – | > 100 µM | > 100 µM | > 100 µM | > 100 µM | > 100 µM | > 100 µM | > 100 µM | – | – | > 100 µM | > 100 µM | > 100 µM | > 100 µM
11 | Cc1ccc(-c2c(C#N)c(-c3ccccc3)n(NS(=O)(=O)c3ccc(C)cc3)c(=O)c2C#N)cc1 | > 100 µM | 80.3 µM | > 100 µM | > 100 µM | > 100 µM | > 100 µM | > 100 µM | > 100 µM | > 100 µM | 54.5 µM | – | > 100 µM | > 100 µM | > 100 µM | > 100 µM | > 100 µM | > 100 µM | > 100 µM
12 | O=c1[nH]c(=O)n(C/C=C/CO)nc1Br | > 100 µM | > 100 µM | > 100 µM | > 100 µM | > 100 µM | – | > 100 µM | > 100 µM | > 100 µM | > 100 µM | > 100 µM | > 100 µM | > 100 µM | > 100 µM | > 100 µM | > 100 µM | > 100 µM | > 100 µM
13 | CCCCCCCCCCCCCCCCP(=O)(O)OCC(N)C(=O)O (stereo not given) | 52.2 µM | > 100 µM | > 100 µM | 48.9 µM | 28.9 µM | > 100 µM | 43.7 µM | > 100 µM | > 100 µM | 42.4 µM | > 100 µM | > 100 µM | > 100 µM | > 100 µM | – | > 100 µM | 78.7 µM | > 100 µM
14 | CN(CCC(=O)N1CC(CCl)c2ccc([N+](=O)[O-])cc21)CCC(=O)N1CC(CCl)c2ccc([N+](=O)[O-])cc21 (stereo not given) | 35.3 µM | > 100 µM | 31.6 µM | 26.1 µM | – | 47.7 µM | 18.3 µM | 23.7 µM | 30.9 µM | 24.2 µM | 29.3 µM | > 100 µM | 37.6 µM | 29 µM | 32 µM | 24.7 µM | 26 µM | > 100 µM
15 | CC(=O)Nc1ccc(-c2nc3ccccc3s2)cc1Br | 32.1 µM | > 100 µM | > 100 µM | > 100 µM | 17.4 µM | > 100 µM | > 100 µM | > 100 µM | > 100 µM | > 100 µM | > 97.3 µM | > 100 µM | > 93.7 µM | > 100 µM | – | > 100 µM | > 100 µM | > 100 µM
16 | Cc1nc2ccccc2c(=O)n1NC(=O)c1ccccn1 | > 100 µM | > 100 µM | > 100 µM | > 100 µM | > 100 µM | > 100 µM | > 100 µM | > 100 µM | > 100 µM | > 100 µM | > 100 µM | > 100 µM | > 100 µM | > 100 µM | > 100 µM | > 100 µM | – | > 100 µM
17 | COC(=O)C1=CC2C(=O)c3ccccc3C1(c1ccccc1)N2C1CCCCC1 (stereo not given) | > 100 µM | > 100 µM | 26.2 µM | > 100 µM | > 100 µM | > 100 µM | 32.1 µM | 73.1 µM | > 100 µM | > 100 µM | > 100 µM | 91.6 µM | > 100 µM | > 100 µM | > 100 µM | – | 29.1 µM | 43.7 µM
18 | NC1C/C(=N\O)c2c(Cl)sc(Cl)c21 (stereo not given) | 59.8 µM | > 100 µM | 61.4 µM | 20.8 µM | 32 µM | > 100 µM | 25.5 µM | 34.5 µM | 33.4 µM | > 100 µM | 33.7 µM | 38.4 µM | 28.8 µM | 33.4 µM | 31.4 µM | – | 36.1 µM | –
19 | CC(=O)OCC1OC(NC(=S)Nn2c(=O)[nH]c3ccccc3c2=O)C(OC(C)=O)C(OC(C)=O)C1OC(C)=O (stereo not given) | > 100 µM | > 100 µM | > 100 µM | > 100 µM | > 100 µM | – | > 100 µM | > 100 µM | > 100 µM | > 100 µM | > 100 µM | – | > 100 µM | > 100 µM | – | > 100 µM | > 100 µM | > 100 µM
20 | COc1cccc(Nc2nc(C)c([N+](=O)[O-])c(Nc3cccc(OC)c3)n2)c1 | 50.4 µM | – | 44.9 µM | > 100 µM | > 100 µM | > 100 µM | – | > 100 µM | > 100 µM | 30.2 µM | > 100 µM | – | > 100 µM | > 100 µM | 95.7 µM | 38.8 µM | 96.5 µM | > 100 µM
21 | CCCCCCCC(CC(=O)NC(CO)C(=O)NC(CO)CC(C)C)OC(=O)CC(CCCCCCC)OC(=O)CC(CCCCCCC)OC1OC(C)C(O)C(OC2OC(C)C(O)C(OC(C)=O)C2O)C1O (stereo not given) | 26.1 µM | 21.4 µM | 18.9 µM | 25.8 µM | 24.8 µM | 31.4 µM | 22.1 µM | 33.4 µM | 19.5 µM | 16.8 µM | 27.9 µM | 27.8 µM | 28.3 µM | 28.8 µM | 29.2 µM | 25.8 µM | – | 17.2 µM
